Measurements taken from PMC9768625, “Is the vesicular nucleotide transporter a molecular target of eicosapentaenoic acid?” (Frontiers in Pharmacology, 2022).

Target: T1, V-ATPase (vacuolar H^+-ATPase), purified from chromaffin granules (Bos taurus, UniProt P23956+Q29466)
T1 construct: gene ATP6V0C; purified chromaffin granule V-ATPase in reconstituted proteoliposomes (multi-subunit complex; subunits A, B and c indicated)
Experiment: colorimetric Mg-ATPase (Pi release) assay of proteoliposomes containing purified V-ATPase, con B at […]
Type: biochemical
Details: proteoliposomes with purified v-atpase

## C/C=C/[C@H]1O[C@@](O)([C@@H](C)[C@H](O)[C@H](C)[C@H]2OC(=O)/C(OC)=C/C(C)=C/[C@@H](C)[C@@H](O)[C@@H](C)[C@@H](O)[C@H](C)C/C(C)=C/C=C/[C@@H]2OC)C[C@@H](O[C@H]2C[C@@H](O)[C@H](OC(N)=O)[C@@H](C)O2)[C@@H]1C [con B, concanamycin B]
  % of ATPase activity sensitive at 1 μM: > 95 % of ATPase activity sensitive at 1 μM
